Test results published in ChEMBL document CHEMBL3431459, “Roche carnitine palmitoyltransferase modulator screening data (supplementary data associated with the publication CHEMBL2216752)”.
≈ marks a conversion by molar mass, not a printed value.

How the values were obtained:
[1] = target: T1, Carnitine O-palmitoyltransferase 1, muscle isoform (Homo sapiens, UniProt Q92523); assay: SUPPLEMENTARY: Inhibition of Carnitine palmitoyltransferase 1, muscle isoform; parameters: species or system Muscle tissue
T1 sequence (Q92523 whole entry): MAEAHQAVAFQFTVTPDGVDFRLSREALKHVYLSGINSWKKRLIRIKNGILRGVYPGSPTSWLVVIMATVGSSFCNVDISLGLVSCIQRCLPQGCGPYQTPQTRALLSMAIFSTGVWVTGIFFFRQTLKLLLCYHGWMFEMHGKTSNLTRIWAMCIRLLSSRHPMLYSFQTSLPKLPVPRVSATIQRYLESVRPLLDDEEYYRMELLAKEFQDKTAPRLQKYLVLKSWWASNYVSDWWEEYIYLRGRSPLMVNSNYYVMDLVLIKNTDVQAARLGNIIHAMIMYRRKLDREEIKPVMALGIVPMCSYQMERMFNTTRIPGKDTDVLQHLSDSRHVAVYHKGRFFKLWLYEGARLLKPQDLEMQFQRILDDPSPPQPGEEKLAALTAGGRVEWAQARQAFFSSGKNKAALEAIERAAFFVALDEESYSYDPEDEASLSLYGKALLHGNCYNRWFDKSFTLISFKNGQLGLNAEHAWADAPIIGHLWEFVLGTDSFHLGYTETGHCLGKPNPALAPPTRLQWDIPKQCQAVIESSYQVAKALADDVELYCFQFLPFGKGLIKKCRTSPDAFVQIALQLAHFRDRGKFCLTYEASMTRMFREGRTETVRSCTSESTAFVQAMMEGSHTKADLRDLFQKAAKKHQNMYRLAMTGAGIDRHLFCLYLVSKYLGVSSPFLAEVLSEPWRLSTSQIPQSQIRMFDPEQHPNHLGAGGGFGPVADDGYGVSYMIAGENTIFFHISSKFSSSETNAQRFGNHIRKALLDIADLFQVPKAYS

[2] = SUPPLEMENTARY: Lyophilisation Solubility Assay (LYSA); assay type: physicochemical; conditions: read-out: Kinetic_solubility
[3] = target: T2, Carnitine O-palmitoyltransferase 1, liver isoform (Rattus norvegicus, UniProt P32198); assay: (§1) SUPPLEMENTARY: Inhibition of Carnitine palmitoyltransferase 1, liver isoform
T2 sequence (P32198 whole entry): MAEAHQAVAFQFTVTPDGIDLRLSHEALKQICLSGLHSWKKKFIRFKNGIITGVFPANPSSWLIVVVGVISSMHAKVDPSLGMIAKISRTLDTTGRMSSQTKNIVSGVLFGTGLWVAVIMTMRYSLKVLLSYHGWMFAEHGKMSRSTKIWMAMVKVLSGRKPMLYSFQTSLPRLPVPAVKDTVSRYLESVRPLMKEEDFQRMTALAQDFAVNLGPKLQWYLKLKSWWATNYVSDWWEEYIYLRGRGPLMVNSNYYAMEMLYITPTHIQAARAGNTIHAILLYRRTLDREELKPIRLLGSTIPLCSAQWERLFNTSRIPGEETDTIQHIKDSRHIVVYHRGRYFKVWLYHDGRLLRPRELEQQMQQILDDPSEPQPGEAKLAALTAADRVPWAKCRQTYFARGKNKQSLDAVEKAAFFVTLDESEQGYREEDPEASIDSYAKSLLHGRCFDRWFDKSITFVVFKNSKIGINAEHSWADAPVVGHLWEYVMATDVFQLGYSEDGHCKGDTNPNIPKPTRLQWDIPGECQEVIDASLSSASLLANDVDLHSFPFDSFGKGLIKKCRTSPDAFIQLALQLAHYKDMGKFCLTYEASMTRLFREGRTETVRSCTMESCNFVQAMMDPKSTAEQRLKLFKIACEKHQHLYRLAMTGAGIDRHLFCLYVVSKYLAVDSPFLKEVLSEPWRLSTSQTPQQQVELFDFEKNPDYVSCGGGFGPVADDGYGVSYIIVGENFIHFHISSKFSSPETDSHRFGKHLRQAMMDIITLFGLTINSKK

[4] = target: T3, Carnitine O-palmitoyltransferase 1, liver isoform (Homo sapiens, UniProt P50416); assay: as §1
T3 sequence (P50416 whole entry): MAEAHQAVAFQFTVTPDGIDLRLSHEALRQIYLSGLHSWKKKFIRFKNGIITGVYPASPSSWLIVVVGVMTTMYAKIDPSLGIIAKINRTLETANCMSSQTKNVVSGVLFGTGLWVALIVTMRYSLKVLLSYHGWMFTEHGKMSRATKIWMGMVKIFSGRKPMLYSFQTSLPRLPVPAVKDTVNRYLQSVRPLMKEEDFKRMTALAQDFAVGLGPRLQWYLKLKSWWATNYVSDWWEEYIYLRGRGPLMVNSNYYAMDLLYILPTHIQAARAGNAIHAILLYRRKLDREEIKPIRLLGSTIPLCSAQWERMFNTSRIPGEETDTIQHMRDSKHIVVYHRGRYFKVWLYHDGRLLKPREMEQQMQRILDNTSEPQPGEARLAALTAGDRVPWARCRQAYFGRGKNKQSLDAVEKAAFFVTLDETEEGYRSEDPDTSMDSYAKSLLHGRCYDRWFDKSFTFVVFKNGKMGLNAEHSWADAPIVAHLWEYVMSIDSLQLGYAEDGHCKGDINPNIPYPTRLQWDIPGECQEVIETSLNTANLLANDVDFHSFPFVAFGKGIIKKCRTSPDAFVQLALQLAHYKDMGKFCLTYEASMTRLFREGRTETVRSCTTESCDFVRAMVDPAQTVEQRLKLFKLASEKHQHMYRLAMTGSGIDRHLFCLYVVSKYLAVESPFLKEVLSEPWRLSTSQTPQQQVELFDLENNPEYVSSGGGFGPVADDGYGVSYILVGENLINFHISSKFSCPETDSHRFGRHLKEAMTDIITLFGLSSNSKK

[5] = SUPPLEMENTARY: PAMPA permeability assay; assay type: physicochemical; conditions: read-out: Permeability
[6] = target: T4, Carnitine O-palmitoyltransferase 2, mitochondrial (Rattus norvegicus, UniProt P18886); assay: (§2) SUPPLEMENTARY: Inhibition of Carnitine palmitoyltransferase 2
T4 sequence (P18886 whole entry): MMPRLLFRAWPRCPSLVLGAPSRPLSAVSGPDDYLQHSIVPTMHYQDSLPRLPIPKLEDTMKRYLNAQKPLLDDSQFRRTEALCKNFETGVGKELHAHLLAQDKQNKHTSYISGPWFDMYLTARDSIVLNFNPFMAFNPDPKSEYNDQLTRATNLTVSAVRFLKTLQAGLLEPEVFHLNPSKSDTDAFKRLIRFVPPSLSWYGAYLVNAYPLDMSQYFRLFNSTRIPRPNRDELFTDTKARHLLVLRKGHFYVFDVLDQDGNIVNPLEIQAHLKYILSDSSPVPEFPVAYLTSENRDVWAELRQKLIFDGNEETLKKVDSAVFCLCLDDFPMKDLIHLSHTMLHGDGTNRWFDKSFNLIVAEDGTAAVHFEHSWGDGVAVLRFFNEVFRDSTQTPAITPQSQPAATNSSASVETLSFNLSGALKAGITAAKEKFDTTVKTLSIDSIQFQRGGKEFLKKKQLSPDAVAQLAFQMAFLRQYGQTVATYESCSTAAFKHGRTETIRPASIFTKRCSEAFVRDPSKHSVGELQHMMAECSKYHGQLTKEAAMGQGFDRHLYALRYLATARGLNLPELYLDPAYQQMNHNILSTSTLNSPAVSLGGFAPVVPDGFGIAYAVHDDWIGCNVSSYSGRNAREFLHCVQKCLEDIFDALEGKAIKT

[7] = target: T5, Carnitine O-palmitoyltransferase 2, mitochondrial (Homo sapiens, UniProt P23786); assay: as §2
T5 sequence (P23786 whole entry): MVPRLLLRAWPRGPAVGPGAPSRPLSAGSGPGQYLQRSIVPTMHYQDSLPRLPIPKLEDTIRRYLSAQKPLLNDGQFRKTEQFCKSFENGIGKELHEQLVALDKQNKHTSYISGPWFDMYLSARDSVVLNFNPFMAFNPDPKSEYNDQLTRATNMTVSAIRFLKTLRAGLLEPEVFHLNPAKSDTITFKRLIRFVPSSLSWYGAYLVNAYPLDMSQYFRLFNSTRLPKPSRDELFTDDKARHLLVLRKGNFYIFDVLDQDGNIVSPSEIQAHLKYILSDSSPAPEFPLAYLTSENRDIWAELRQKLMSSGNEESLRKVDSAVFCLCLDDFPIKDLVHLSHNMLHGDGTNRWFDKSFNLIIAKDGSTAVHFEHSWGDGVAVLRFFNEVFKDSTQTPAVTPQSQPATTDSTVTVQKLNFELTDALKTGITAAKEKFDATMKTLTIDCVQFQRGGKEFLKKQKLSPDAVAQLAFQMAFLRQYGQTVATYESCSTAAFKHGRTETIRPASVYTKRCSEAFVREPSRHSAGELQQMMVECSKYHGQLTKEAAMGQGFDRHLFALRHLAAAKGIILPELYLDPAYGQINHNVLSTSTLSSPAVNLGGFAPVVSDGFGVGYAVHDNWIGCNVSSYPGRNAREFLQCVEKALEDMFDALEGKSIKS

Row | SMILES | IC50 [1] [nM] | solubility kinetic [2] [µg/mL] | IC50 [3] [nM] | IC50 [4] [nM] | Papp [5] [×10⁻⁶ cm/s] | IC50 [6] [nM] | IC50 [7] [nM]
1 | O=C(Nc1ccc(C(=O)O)c(F)c1)c1ccc2c(c1)N(S(=O)(=O)c1cccc(C(F)(F)F)c1)CCC2 | 9000 | 10 (≈ 19.1 µM) | 74.8 | 126 | 2.13 | 6450 | 2230
2 | Nc1cc(-c2noc([C@H]3CCCCN3C(=O)COc3ccccc3)n2)ccn1 | > 100000 | 106 (≈ 279 µM) | 250 | 108 | 5.3 | 35200 | 19500
3 | COc1ccc(Cl)cc1S(=O)(=O)N1CCNc2ccc(C(=O)Nc3ccc(C(=O)O)cc3)cc21 | 11800 | 1 (≈ 1.99 µM) | 189 | 71.3 | 0.81 | > 100000 | > 100000
4 | Cc1cc(C(=O)Nc2ccc(-c3nnn[nH]3)cc2)nn1Cc1ccc(OC(F)F)cc1 | 6170 | 31 (≈ 72.9 µM) | 932 | 192 | 1.23 | 81600 | 72600
5 | O=C(Nc1ccc(C(=O)O)c(F)c1)c1ccc2c(c1)N(S(=O)(=O)c1cccc(Cl)c1)CCO2 | 6920 | 4 (≈ 8.15 µM) | 72.3 | 207 | 2.21 | > 100000 | 18600
6 | COc1ccc(Cl)cc1S(=O)(=O)N1CCCCc2ccc(C(=O)Nc3ccc(C(=O)O)c(F)c3)cc21 | 9100 | 345 (≈ 647 µM) | 134 | 131 | 2.15 | 46500 | 28100
7 | O=C(NC1CC1)c1cncc(-c2noc([C@H]3CCCCN3C(=O)COc3ccccc3)n2)c1 | > 100000 | 138 (≈ 308 µM) | 1000 | 111 | 3.2 | > 100000 | > 100000
8 | COc1ccc(Cl)cc1S(=O)(=O)N1COc2c(F)cc(C(=O)Nc3ccc(C(=O)O)cc3)cc21 | 17600 | 15 (≈ 29.6 µM) | 63.4 | 42.5 | 2.2 | > 100000 | 15100
9 | COc1ccc(Cl)cc1S(=O)(=O)N1COc2c(F)cc(C(=O)Nc3ccc(C(=O)O)c(Cl)c3)cc21 | 2730 | 73 (≈ 135 µM) | 123 | 130 | 1.79 | 9570 | 2780
10 | COc1ccc(Cl)cc1S(=O)(=O)N1CC(C)c2ccc(C(=O)Nc3ccc(C(=O)O)cc3)cc21 (centres undefined) | 2240 | 12 (≈ 24 µM) | 21 | 62.2 | 2.4 | 1660 | 672
11 | COc1ccc(Cl)cc1S(=O)(=O)N1CCOc2c(F)cc(C(=O)Nc3ccc(C(=O)O)cc3)cc21 | > 100000 | 5 (≈ 9.6 µM) | 45.2 | 77.5 | 2.44 | > 100000 | 11300
12 | COc1ccc(Cl)cc1Sc1cn(C)c2ccc(C(=O)Nc3ccc(C(=O)O)cc3)cc12 | > 100000 | 2 (≈ 4.28 µM) | 74 | 61.9 | 0.53 | > 100000 | > 100000
